Measurements reported in PMC3581310 (Bioorganic & medicinal chemistry, 2012).

Experiments:
ER [1] = settings: triphenyl acrylonitriles; cited from earlier work
[2] = system: human endometrial adenocarcinoma cells (Ishikawa); assay: Estrogen bioassay: induction of AlkP in Ishikawa cells; format: cell-based
ER [3] = settings: cited from earlier work

Q: With `N#CC(=C(c1ccc(O)cc1)c1ccc(O)cc1)c1ccc(O)cc1` [α,α′,β-tris(4-hydroxyphenyl) compound] as the compound, how does the efficacy (ER [1]) read?
A: full agonist

Q: Which EC50 ([2]; Homo sapiens, Ishikawa, read-out: EC50 of E2) does the source give for `C[C@]12CC[C@@H]3c4ccc(O)cc4CC[C@H]3[C@@H]1CC[C@@H]2O` [Compound E2, estradiol] here?
A: ~0.2 nM

Q: With `COc1ccc(C(=C(C#N)c2ccc(O)cc2)c2ccc(O)cc2)cc1` as the compound, how does the efficacy (ER [1]) read?
A: ‘partial’ agonist responses

Q: For `CC/C(=C(\c1ccccc1)c1ccc(OCCN(C)C)cc1)c1ccccc1` [tamoxifen], which “affinity (RBA)” value (ER [3]) is on record?
A: ~ 1%

Q: With `COc1ccc([C@H]2C[C@]3(C)[C@@H](O)CC[C@H]3[C@@H]3CCc4cc(O)ccc4[C@H]32)cc1` [Compound 5, 11β-(4-Methoxyphenyl)estra-1,3,5(10)-trien-3,17β-diol] as the compound, how does the Max stim ([2]; maximal stimulation of AlkP in Ishikawa cells, printed in the RSA column) read?
A: Max stim = 35–45%
